Test results from patent publication US20230271932A1, “SMALL MOLECULE COVALENT ACTIVATORS OF UCP1” (Dana-Farber Cancer Institute, Inc., priority 2020, published 2023).

Biological target: T1, UCP1 (Mus musculus, UniProt P12242)
T1 construct: Cellular oxygen consumption and UCP1-rependent respiration of primary brown adipocytes; endogenous in cells; host or cells: primary brown adipocytes differentiated from the interscapular brown adipose stromal vascular fraction of 2- to 6-day-old pups
T1 sequence (P12242 1-307): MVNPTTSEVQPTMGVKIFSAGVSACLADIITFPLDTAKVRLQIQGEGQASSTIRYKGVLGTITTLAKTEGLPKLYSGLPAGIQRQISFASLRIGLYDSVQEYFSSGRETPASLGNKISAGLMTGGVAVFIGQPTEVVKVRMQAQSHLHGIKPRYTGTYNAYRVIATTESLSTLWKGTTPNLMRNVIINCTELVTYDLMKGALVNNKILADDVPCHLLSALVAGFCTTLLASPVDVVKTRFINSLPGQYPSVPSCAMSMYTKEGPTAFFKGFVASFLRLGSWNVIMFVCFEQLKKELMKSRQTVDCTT
Test: UCP1-dependent respiration in primary brown adipocytes (Seahorse XF24 oxygen consumption)
Type: cell-based
Conditions: wild-type primary brown adipocytes; MYF compounds at 100 uM
Experimental: Primary brown adipocyte preparation and differentiation. Interscapular brown adipose stromal vascular fraction was obtained from 2- to 6-day-old pups as described in PMID: 30022159. Interscapular brown adipose was dissected, washed in PBS, minced, and digested for 45 min at 37° C. in PBS containing 1.5 mg ml^−1 collagenase B, 123 mM NaCl, 5 mM KCl, 1.3 mM CaCl2, 5 mM glucose, 100 mM HEPES, and 4% essentially fatty-acid-free BSA. Tissue suspension was filtered through a 40 µm cell strainer and centrifuged at 600 g for 5 min to pellet the SVF. The cell pellet was resuspended in adipocyte culture medium and plated. Cells were maintained at 37° C. in 10% CO2. Primary brown pre-adipocytes were counted and plated in the evening, 12 h before differentiation at 15,000 cells per well of a seahorse plate. Pre-adipocyte plating was scaled according to surface area. […]
Direct measure of UCP1-dependent respiration in brown adipocytes. […] Basal respiration was determined to be the oxygen consumption in the presence of substrate (1 mM sodium pyruvate) alone. Following determination of basal respiration, MYF compounds at 100 uM or vehicle was added to the cells and the respiration response measured immediately. […] Maximal respiration capacity was determined following addition of DNP (2 mM). […]

UCP-1-dependent respiration | Compound
activation | C=CC(=O)Nc1cc(-c2ccncc2)ccc1C(=O)OC [CP-A16, methyl 2-acrylamido-4-(pyridin-4-yl)benzoate]
activation | CCC(=O)Nc1cc(-c2ccnnc2)sc1C(=O)OC [ZNL-06-123]
